pIC50: −log10 of the molar value. “And” between values parts separate entries of the source, which are not always exact repeats. Identical values can stand only once. Like-named read-outs stand apart in the source and are kept apart here.
What was measured:
[1] = Plasma concentration in normal mice after oral administration; format: in vivo, mice (C57BL/6N); conditions: C57BL/6N mice, 1 mg orally, LC/MS/MS
Experimental: Plasma concentrations of CB-7 or B2-24-4-5A·HCOOH were measured in normal mice (C57BL/6N, 11 weeks old, female) after oral administration. 1 mg of CB-7 or B2-24-4-5A·HCOOH was administered orally to mice C57BL/6N. After 0.5, 1, 2, 4, or 8 hours, blood was collected from mice C57BL/6N to prepare plasma. The concentration of CB-7 or B2-24-4-5A·HCOOH in the plasma was measured by LC/MS/MS.

[2] = system: Cytochrome P450 (CYP), mouse liver microsomes; assay: Metabolic stability (CYP) using mouse liver microsomes, HPLC; format: in vitro ADME; conditions: for Area (%) of peak: LC-UV (220 nm)
Experimental: For CB-7, B2-24, and B2-5A, 10 mg/mL DMSO solution was used. Each chemical compound was diluted with acetonitrile to 0.1 mg/mL, which was used as the analytical standard. Mouse liver microsomal fractions were rapidly thawed in a warm bath at 37° C. and kept on ice. Reaction buffer containing CYP cofactor was prepared on ice and mixed with the microsomal fractions. The reaction solution was preincubated at 37° C. for 5 minutes, and then the test substance solution was added and mixed well by pipetting. The volume of the reaction solution was 200 μL and the final concentration of the test substance was 0.1 mg/mL. The reaction solution was incubated at 37° C. for 30 minutes or 2 hours, and the reaction was stopped by adding 3 times the volume of acetonitrile and vortexing. After the reaction was stopped, the samples were centrifuged, and each supernatant was separated and dried in an evaporator. 50 μL of 50% acetonitrile solution was added to each solidified sample, and each sample was re-dissolved by vortexing for 5 minutes. Each redissolved solution was centrifuged, and each supernatant was subjected to HPLC analysis using a HITACHI Lachrom ELITE (HITACHI) as a HPLC system and COSMOSIL 5C18-MS-II, 4.6 mmI.D.×150 mm (nacalai tesque Co.) as a column.
Metabolic stability analysis of CB-7 and B2-24-4-5A·HCOOH was performed by the method of Example 5.

mouse TLR7 = molecular target: T1, mouse TLR7 (Mus musculus, UniProt P58681); assay: Inhibition of TLR7 activation in mouse TLR7-expressing NF-κB-GFP reporter Ba/F3 cells; format: cell-based
T1 construct: expressed in transfected cells; host or cells: Ba/F3 cells (provided by Prof. Kensuke Miyake, University of Tokyo)
T1 sequence (P58681 27-1050): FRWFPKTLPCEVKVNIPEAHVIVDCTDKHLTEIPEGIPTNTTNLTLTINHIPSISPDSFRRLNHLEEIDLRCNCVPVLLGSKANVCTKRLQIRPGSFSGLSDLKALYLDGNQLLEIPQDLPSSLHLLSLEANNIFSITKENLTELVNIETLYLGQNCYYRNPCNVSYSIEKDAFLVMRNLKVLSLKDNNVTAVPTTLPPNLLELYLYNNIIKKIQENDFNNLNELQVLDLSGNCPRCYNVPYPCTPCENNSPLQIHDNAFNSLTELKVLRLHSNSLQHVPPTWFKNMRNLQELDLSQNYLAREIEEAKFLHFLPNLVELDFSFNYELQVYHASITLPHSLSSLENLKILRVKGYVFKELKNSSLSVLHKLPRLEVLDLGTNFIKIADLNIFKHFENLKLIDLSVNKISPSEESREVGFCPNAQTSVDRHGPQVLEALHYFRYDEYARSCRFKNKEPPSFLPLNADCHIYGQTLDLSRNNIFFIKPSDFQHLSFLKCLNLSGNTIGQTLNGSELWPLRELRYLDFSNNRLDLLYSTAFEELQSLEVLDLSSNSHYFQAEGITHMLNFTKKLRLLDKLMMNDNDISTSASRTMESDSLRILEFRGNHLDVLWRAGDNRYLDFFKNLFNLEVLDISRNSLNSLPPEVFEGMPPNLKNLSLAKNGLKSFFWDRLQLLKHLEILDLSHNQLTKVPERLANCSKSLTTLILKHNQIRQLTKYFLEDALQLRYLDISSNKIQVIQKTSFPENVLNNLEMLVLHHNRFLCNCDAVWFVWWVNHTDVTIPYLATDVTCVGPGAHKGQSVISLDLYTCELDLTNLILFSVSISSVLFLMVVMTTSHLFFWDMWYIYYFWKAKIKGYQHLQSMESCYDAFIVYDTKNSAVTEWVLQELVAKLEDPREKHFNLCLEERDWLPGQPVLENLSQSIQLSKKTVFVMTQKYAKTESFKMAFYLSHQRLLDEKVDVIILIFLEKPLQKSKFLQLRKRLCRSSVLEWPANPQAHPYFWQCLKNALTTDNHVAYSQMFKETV
Excerpt: Mouse TLR7-expressing reporter cells (Ba/F3 cells) were used to evaluate inhibition of TLR7 activation in each derivative and CB-7. These cells were provided by Professor Kensuke Miyake (Department of Infection Genetics, Institute of Medical Science, University of Tokyo). These cells have been transfected with a reporter gene that connects GFP gene downstream of the promoter region of NF-κB. Therefore, the expression of GFP is enhanced by the addition of a ligand for TLR7 expressed by the cells. The fluorescence intensity of GFP was attenuated by the addition of each derivative, and the inhibition of TLR7 activation by each derivative was evaluated as an indicator.
Loxoribine (Alexis Biochemicals) was used as the ligand for mouse TLR7. Gardiquimod (Invivogen) was used as the ligand for human TLR7.
Ba/F3 cells cultured in RPMI 1640 medium containing 10% (v/v) fetal calf serum (FCS), 50 U/mL penicillin, 50 μg/mL streptomycin, 2 mM L-glutamine, […] 2-mercaptoethanol, 1 ng/mL interleukin-3 were aliquoted into 96-well plates so that the number of cells per well was 1.0×10^5 cells/100 μL. 50 μL of each derivative or CB-7, prepared to final concentrations of 1, 5, 10, 25, 50, and 100 µM, was added to each well. 96-well plates were incubated at 37° C. for 30 minutes in the presence of 5% CO2. Next, 250 μg/mL Roxoribin was added to each well and incubated for 18 hours. At the end of incubation, cells were washed with PBS (FACS buffer) containing 2.5% (v/v) FCS and suspended in 200 μL of FACS buffer containing 25 μg/mL […] for each cell. GFP fluorescence intensities of the cells were analyzed by flow cytometry. Flow cytometry measurement was performed on a FACSCanto™ II (Becton Dickinson) and data were analyzed with FlowJo software (Tree Star). The MFI (%) upon stimulation with roxoribin in the presence of […] derivatives or CB-7 was calculated using the MFI upon stimulation with roxoribin alone as 100%, and then IC50 (chemical compound concentration that inhibits activity by 50%) was calculated by logistic regression analysis.
The evaluation of the TLR7 activation inhibition by B2-24-4-5A·HCOOH was performed by the method described in Example 2. CB-7 and B2-24-4·HCl were used as controls.

Structure (SMILES): C=C[C@]1(CO)CC[C@@H](C(=C)C)[C@H](c2ccc(OC)cc2)C1 [CB-7, reference compound]
- Plasma concentration after 8 hours [1]: could not be detected
- Number of peaks detected by HPLC ([2]; Example 3, 0.1 mg/mL, 37° C., 30 minutes or 2 hours): 7
- Number of peaks detected by HPLC ([2]; Example 9): 9
- Area (%) of peak ([2]; Example 9, 0 h): 100%
- Area (%) of peak ([2]; Example 9, incubation 0.5 h): 65.3%
- Area (%) of peak ([2]; Example 9, incubation 2.0 h): 41.6% and 41.2%
- pIC50 (mouse TLR7; Example 2, Ba/F3 reporter cells, loxoribine stimulation 18 hours, GFP MFI, read-out: IC50 of CB-7 derivatives with modified Areas a and b): 5.51
- pIC50 (mouse TLR7; Example 5, Table 5, method of Example 2, read-out: IC50): 5.12
